Results reported in patent publication US12122763B2, “Substituted piperidines for androgen receptor degradation” (UBIX THERAPEUTICS, INC., priority 2020, dated 2024).

Biological target: T1, Androgen Receptor (AR) protein (Homo sapiens, UniProt P10275, T878A)
T1 construct: endogenous in cells; host or cells: LNCaP
Assay: Androgen Receptor (AR) protein degradation assay in LNCaP cells, western blotting
Assay type: cell-based
Settings: 20 h; for inhibition at 0.01 µM: 0.01 μM compound; for inhibition at 0.1 µM: 0.1 μM compound; for inhibition at 1 µM: 1 μM compound; for inhibition at 10 µM: 10 μM compound
Method in brief: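 LNCaP prostate cancer cells were cultured 3 days, then treated with compound for 20 h. Lysates in 1% SDS buffer were normalised by BCA, and 8 μg protein was run on 4–12% Bis-Tris gels. AR was immunoblotted with chemiluminescence, using GAPDH/β-actin as loading controls.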

T1 sequence (P10275 whole entry T878A): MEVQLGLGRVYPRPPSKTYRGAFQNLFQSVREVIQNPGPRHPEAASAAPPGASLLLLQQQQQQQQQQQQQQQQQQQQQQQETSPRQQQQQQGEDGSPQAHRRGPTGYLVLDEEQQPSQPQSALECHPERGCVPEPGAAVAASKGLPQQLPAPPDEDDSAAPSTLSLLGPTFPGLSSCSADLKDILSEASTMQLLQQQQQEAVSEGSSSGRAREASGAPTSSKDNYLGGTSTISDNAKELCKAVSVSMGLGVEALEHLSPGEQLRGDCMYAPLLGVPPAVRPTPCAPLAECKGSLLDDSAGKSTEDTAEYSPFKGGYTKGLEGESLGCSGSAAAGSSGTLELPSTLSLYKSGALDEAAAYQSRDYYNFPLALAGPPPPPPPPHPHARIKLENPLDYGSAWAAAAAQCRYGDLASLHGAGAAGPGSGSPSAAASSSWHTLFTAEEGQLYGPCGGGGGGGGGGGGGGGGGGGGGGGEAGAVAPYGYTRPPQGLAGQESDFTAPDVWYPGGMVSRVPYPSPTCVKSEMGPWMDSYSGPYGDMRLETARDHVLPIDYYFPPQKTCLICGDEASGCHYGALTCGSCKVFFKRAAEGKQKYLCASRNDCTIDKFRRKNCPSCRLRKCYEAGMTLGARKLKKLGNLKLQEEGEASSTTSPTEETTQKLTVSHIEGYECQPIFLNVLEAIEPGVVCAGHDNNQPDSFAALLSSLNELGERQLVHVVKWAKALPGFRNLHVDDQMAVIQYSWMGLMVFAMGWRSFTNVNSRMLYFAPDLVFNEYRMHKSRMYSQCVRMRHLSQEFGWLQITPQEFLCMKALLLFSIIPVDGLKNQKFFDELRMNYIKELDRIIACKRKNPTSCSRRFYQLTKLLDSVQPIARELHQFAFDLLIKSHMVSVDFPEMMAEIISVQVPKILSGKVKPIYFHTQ
T1 sequence (Q96SW2 whole entry partner): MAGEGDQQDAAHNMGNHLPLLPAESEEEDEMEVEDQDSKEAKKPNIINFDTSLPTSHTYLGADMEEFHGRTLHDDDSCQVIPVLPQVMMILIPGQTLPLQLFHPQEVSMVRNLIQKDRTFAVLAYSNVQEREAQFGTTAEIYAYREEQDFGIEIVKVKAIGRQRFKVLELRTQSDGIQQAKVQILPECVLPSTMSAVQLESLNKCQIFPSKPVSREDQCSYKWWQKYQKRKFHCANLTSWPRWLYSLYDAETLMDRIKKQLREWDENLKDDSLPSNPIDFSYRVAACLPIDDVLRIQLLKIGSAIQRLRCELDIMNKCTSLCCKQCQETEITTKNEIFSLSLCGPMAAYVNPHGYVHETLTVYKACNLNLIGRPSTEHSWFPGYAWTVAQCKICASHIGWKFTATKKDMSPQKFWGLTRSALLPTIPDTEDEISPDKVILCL

Row | Compound | inhibition at 0.01 µM [%] | inhibition at 0.1 µM [%] | inhibition at 1 µM [%] | inhibition at 10 µM [%]
1 | N#Cc1ccc(N2CCN(C(=O)Nc3ccc(N4CCC(CN5CC6(CCN(c7ccc8c(c7)C(=O)N(C7CCC(=O)NC7=O)C8=O)CC6)C5)CC4)nc3)CC2)cc1Cl (stereo not drawn) [Example 104, 4-(3-chloro-4-cyanophenyl)-N-(6-(4-((7-(2-(2,6-dioxopiperidin-3-yl)-1,3-dioxoisoindolin-5-yl)-2,7-diazaspiro[3.5]nonan-2-yl)methyl)piperidin-1-yl)pyridin-3-yl)piperazine-1-carboxamide] | -2 | -5 | 36 | 59
2 | N#Cc1ccc(N2CCC(C(=O)Nc3ccc(N4CCC(CN5CCN(C6CCN(c7ccc(C(=O)NC8CCC(=O)NC8=O)nc7)CC6)CC5)CC4)cn3)CC2)cc1C(F)(F)F (stereo not drawn) [Example 105, 5-(4-(4-((1-(6-(1-(4-cyano-3-(trifluoromethyl)phenyl)piperidine-4-carboxamido)pyridin-3-yl)piperidin-4-yl)methyl)piperazin-1-yl)piperidin-1-yl)-N-(2,6-dioxopiperidin-3-yl)picolinamide] | 43 | 82 | 92 | 
3 | N#Cc1ccc(N2CCC(C(=O)Nc3ccc(N4CCC(CN5CCN(CC6CCN(c7ccc(C(=O)NC8CCC(=O)NC8=O)nc7)CC6)CC5)CC4)cn3)CC2)cc1C(F)(F)F (stereo not drawn) [Example 106, 5-(4-((4-((1-(6-(1-(4-cyano-3-(trifluoromethyl)phenyl)piperidine-4-carboxamido)pyridin-3-yl)piperidin-4-yl)methyl)piperazin-1-yl)methyl)piperidin-1-yl)-N-(2,6-dioxopiperidin-3-yl)picolinamide] | 32 | 86 | 96 | 
4 | N#Cc1ccc(N2CCC(C(=O)Nc3ccc(N4CCC(CCN5CCN(c6ccc(C(=O)NC7CCC(=O)NC7=O)nc6)CC5)CC4)cn3)CC2)cc1C(F)(F)F (stereo not drawn) [Example 107, 5-(4-(2-(1-(6-(1-(4-cyano-3-(trifluoromethyl)phenyl)piperidine-4-carboxamido)pyridin-3-yl)piperidin-4-yl)ethyl)piperazin-1-yl)-N-(2,6-dioxopiperidin-3-yl)picolinamide] | 44 | 85 | 93 | 
5 | C[C@@H]1CN(CC2CCN(c3ccc(C(=O)NC4CCC(=O)NC4=O)nc3)CC2)CCN1CC1CCN(c2ccc(NC(=O)C3CCN(c4ccc(C#N)c(C(F)(F)F)c4)CC3)nc2)CC1 (stereo partly drawn) [Example 108, 5-(4-(((R)-4-((1-(6-(1-(4-cyano-3-(trifluoromethyl)phenyl)piperidine-4-carboxamido)pyridin-3-yl)piperidin-4-yl)methyl)-3-methylpiperazin-1-yl)methyl)piperidin-1-yl)-N-(2,6-dioxopiperidin-3-yl)picolinamide] | 51 | 85 | 89 | 
6 | C[C@H]1CN(CC2CCN(c3ccc(C(=O)NC4CCC(=O)NC4=O)nc3)CC2)CCN1CC1CCN(c2ccc(NC(=O)C3CCN(c4ccc(C#N)c(C(F)(F)F)c4)CC3)nc2)CC1 (stereo partly drawn) [Example 109, 5-(4-(((S)-4-((1-(6-(1-(4-cyano-3-(trifluoromethyl)phenyl)piperidine-4-carboxamido)pyridin-3-yl)piperidin-4-yl)methyl)-3-methylpiperazin-1-yl)methyl)piperidin-1-yl)-N-(2,6-dioxopiperidin-3-yl)picolinamide] | 30 | 82 | 83 | 
7 | CN(CCN1CCN(c2ccc3c(c2)C(=O)N(C2CCC(=O)NC2=O)C3=O)CC1)CC1CCN(c2ccc(NC(=O)C3CCN(c4ccc(C#N)c(C(F)(F)F)c4)CC3)nc2)CC1 (stereo not drawn) [Example 110, 1-(4-cyano-3-(trifluoromethyl)phenyl)-N-(5-(4-(((2-(4-(2-(2,6-dioxopiperidin-3-yl)-1,3-dioxoisoindolin-5-yl)piperazin-1-yl)ethyl)(methyl)amino)methyl)piperidin-1-yl)pyridin-2-yl)piperidine-4-carboxamide] | 56 | 89 | 88 | 
8 | N#Cc1ccc(N2CCC(C(=O)Nc3ccc(N4CCN(C(=O)CCCCCNc5ccc6c(c5)C(=O)N(C5CCC(=O)NC5=O)C6=O)CC4)cn3)CC2)cc1C(F)(F)F (stereo not drawn) [Example 111, 1-(4-cyano-3-(trifluoromethyl)phenyl)-N-(5-(4-(6-((2-(2,6-dioxopiperidin-3-yl)-1,3-dioxoisoindolin-5-yl)amino)hexanoyl)piperazin-1-yl)pyridin-2-yl)piperidine-4-carboxamide] | 29 | 70 | 67 | 67
9 | N#Cc1ccc(N2CCC(C(=O)Nc3ccc(N4CCN(C(=O)CCCCCNc5ccc6c(c5)C(=O)N(C5CCC(=O)NC5=O)C6=O)CC4)cn3)CC2)cc1Cl (stereo not drawn) [Example 112, 1-(3-chloro-4-cyanophenyl)-N-(5-(4-(6-((2-(2,6-dioxopiperidin-3-yl)-1,3-dioxoisoindolin-5-yl)amino)hexanoyl)piperazin-1-yl)pyridin-2-yl)piperidine-4-carboxamide] | 9 | 55 | 50 | 48
10 | N#Cc1ccc(N2CCC(C(=O)Nc3ccc(N4CCN(CCCCCOc5ccc6c(c5)C(=O)N(C5CCC(=O)NC5=O)C6=O)CC4)cn3)CC2)cc1C(F)(F)F (stereo not drawn) [Example 113, 1-(4-cyano-3-(trifluoromethyl)phenyl)-N-(5-(4-(5-((2-(2,6-dioxopiperidin-3-yl)-1,3-dioxoisoindolin-5-yl)oxy)pentyl)piperazin-1-yl)pyridin-2-yl)piperidine-4-carboxamide] | 55 | 92 | 87 | 
11 | N#Cc1ccc(N2CCC(C(=O)Nc3ccc(N4CCN(CCCCCOc5ccc6c(c5)C(=O)N(C5CCC(=O)NC5=O)C6=O)CC4)cn3)CC2)cc1Cl (stereo not drawn) [Example 114, 1-(3-chloro-4-cyanophenyl)-N-(5-(4-(5-((2-(2,6-dioxopiperidin-3-yl)-1,3-dioxoisoindolin-5-yl)oxy)pentyl)piperazin-1-yl)pyridin-2-yl)piperidine-4-carboxamide] | 41 | 89 | 91 | 
12 | N#Cc1ccc(N2CCC(C(=O)Nc3ccc(N4CCN(CCCCOc5ccc6c(c5)C(=O)N(C5CCC(=O)NC5=O)C6=O)CC4)cn3)CC2)cc1C(F)(F)F (stereo not drawn) [Example 115, 1-(4-cyano-3-(trifluoromethyl)phenyl)-N-(5-(4-(4-((2-(2,6-dioxopiperidin-3-yl)-1,3-dioxoisoindolin-5-yl)oxy)butyl)piperazin-1-yl)pyridin-2-yl)piperidine-4-carboxamide] | 18 | 89 | 87 | 
13 | N#Cc1ccc(N2CCC(C(=O)Nc3ccc(N4CCN(CCCCOc5ccc6c(c5)C(=O)N(C5CCC(=O)NC5=O)C6=O)CC4)cn3)CC2)cc1Cl (stereo not drawn) [Example 116, 1-(3-chloro-4-cyanophenyl)-N-(5-(4-(4-((2-(2,6-dioxopiperidin-3-yl)-1,3-dioxoisoindolin-5-yl)oxy)butyl)piperazin-1-yl)pyridin-2-yl)piperidine-4-carboxamide] | 24 | 43 | 53 | 
